Counter-ions that a name gives are not always drawn.

In the test the target is T1, human V1a receptor (Homo sapiens, UniProt P37288).
T1 construct: expressed in transfected cells; host or cells: HEK293 cells, transiently transfected; cell membranes prepared
T1 sequence (P37288 whole entry): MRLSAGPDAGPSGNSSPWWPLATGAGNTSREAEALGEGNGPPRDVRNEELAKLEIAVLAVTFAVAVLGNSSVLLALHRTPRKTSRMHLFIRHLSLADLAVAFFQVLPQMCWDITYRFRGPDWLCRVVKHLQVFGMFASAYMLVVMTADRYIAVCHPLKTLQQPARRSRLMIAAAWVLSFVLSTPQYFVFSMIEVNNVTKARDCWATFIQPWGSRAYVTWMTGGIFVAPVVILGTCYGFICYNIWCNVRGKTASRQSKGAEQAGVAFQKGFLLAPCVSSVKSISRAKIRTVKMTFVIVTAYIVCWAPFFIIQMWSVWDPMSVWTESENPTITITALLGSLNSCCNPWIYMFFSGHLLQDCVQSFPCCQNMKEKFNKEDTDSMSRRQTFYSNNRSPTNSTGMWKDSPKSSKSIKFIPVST
Put plainly: human V1a receptor binding study (3H-Vasopressin, SPA beads, HEK293 membranes). Particulars: membranes of HEK293 cells transiently transfected with human V1a receptor; 3H-Vasopressin; Ki calculated using the Cheng-Prussoff equation; read-out: pKi (hV1a) (converted). Put shortly: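 Membranes from transiently transfected HEK293 cells on SPA beads in Tris with 120 mM NaCl, 5 mM KCl, 2 mM CaCl2 and 10 mM MgCl2. 3H-vasopressin is added as a 4 nM solution, with cold vasopressin defining non-specific binding. After 1 h at room temperature, IC50 by non-linear fit; Ki by Cheng-Prusoff.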
With `FC(F)(F)O[C@H]1CC[C@H](c2nnc3n2-c2ccc(Cl)cc2CNC3)CC1` [Example 66, trans-8-Chloro-1-(4-trifluoromethoxy-cyclohexyl)-5,6-dihydro-4H-2,3,5,10b-tetraaza-benzo[e]azulene hydrochloride], the Ki was 195 nM.

Turning to `CN1Cc2cc(Cl)ccc2-n2c(nnc2[C@H]2CC[C@H](OC(F)(F)F)CC2)C1` [Example 67, trans-8-Chloro-5-methyl-1-(4-trifluoromethoxy-cyclohexyl)-5,6-dihydro-4H-2,3,5,10b-tetraaza-benzo[e]azulene], the Ki is 26.3 nM.

`CC(C)(C)OC(=O)N1Cc2cc(Cl)ccc2-n2c(nnc2[C@H]2CC[C@H](OC(C)(C)C)CC2)C1` [Example 68, trans-1-(4-tert-Butoxy-cyclohexyl)-8-chloro-4H,6H-2,3,5,10b-tetraaza-benzo[e]azulene-5-carboxylic acid tert-butyl ester]: the Ki was 3.8 nM.

(Values after patent US8642590B2, “Alkylcyclohexylethers of dihydrotetraazabenzoazulenes” (Hoffmann-La Roche Inc., priority 2008, dated 2014).)
